Data published in patent publication EP2535414B1 (priority 2003, dated 2005).

Assays:
[1] = target: B. licheniformis strain B6 glyphosate-N-acetyltransferase (GAT), native, B6, SEQ ID NO:7 (Bacillus licheniformis, UniProt Q65LG7); assay: Apparent KM for Acetyl CoA and kcat of purified GAT, mass spectrometric detection of N-acetyl glyphosate; assay type: biochemical
[2] = target: native GAT polypeptide 401 (SEQ ID NO:6), glyphosate-N-acetyltransferase (Bacillus licheniformis, UniProt Q65LG7); assay: GAT activity with respect to glyphosate, aspartate and serine (Table 21), DTNB read-out; assay type: biochemical; conditions: AcCoA as acetyl donor, 25 mM Hepes, pH 6.8, 10% ethylene glycol
Experimental: (§1) GAT activity of several GAT polypeptides of the disclosure was evaluated with respect to a number of amino acid substrates. The GAT polypeptide, AcCoA and amino substrate were incubated in 25 mM Hepes, pH 6.8, 10% ethylene glycol in the wells of a 96-well polystyrene plate. After 30 minutes, the reactions were stopped by the addition of 30 µl of 10 mM 5, 5'-dithiobis-2-nitrobenzoate (DTNB) in 500 mM Tris, pH 7.5. After 2 minutes, absorbance was read at 412 nm in a Spectramax Plus plate reader (Molecular Devices, Sunnyvale, CA).
(§2) Activity with the other protein amino acids was either undetected or less than 3% that of GAT activity towards glyphosate as the substrate. […] The percentages refer to percent activity relative to activity of the GAT polypeptide towards the substrate, glyphosate. Some of the data is shown below in Table 21. Table 21: GAT activity with respect to Glyphosate, Aspartate and Serine

[3] = target: non-native GAT polypeptide 17-15H3 (SEQ ID NO:601), glyphosate-N-acetyltransferase (Bacillus licheniformis, UniProt Q65LG7); assay: as above; assay type: biochemical; conditions: AcCoA as acetyl donor, 25 mM Hepes, pH 6.8, 10% ethylene glycol
Experimental: as §1, §2

[4] = target: non-native GAT polypeptide 25-8H7 (SEQ ID NO:907), glyphosate-N-acetyltransferase (Bacillus licheniformis, UniProt Q65LG7); assay: as above; assay type: biochemical; conditions: AcCoA as acetyl donor, 25 mM Hepes, pH 6.8, 10% ethylene glycol
Experimental: as §1, §2

[5] = tested on: GAT20-30C6 (SEQ ID NO:683) variant 20-30C6 H138A; assay: GAT kinetics of active-site mutants, 0 KCl, Bradford protein assay (Table 12); assay type: biochemical
Experimental: (§3) KM was calculated from the initial reaction rates obtained from concentrations of glyphosate ranging from 0.125 to 10 mM, using the Lineweaver-Burke transformation of the Michaelis-Menten equation. kcat/KM was determined by dividing the value determined for kcat by the value determined for KM.
(§4) The amino acids aspartic acid (Asp, D), histidine (His, H) and cysteine (Cys, C) are known to be associated with the active sites of various acetyltransferase enzymes. To determine if any such residues play a role in GAT activity, all D, C, and H residues of GAT20-30C6 (SEQ ID NO:683) were individually mutated to alanine (Ala, A) and the mutated enzymes assayed for N-acetylglyphosate activity. […]

[6] = target: GAT20-30C6 (SEQ ID NO:683) variant 20-30C6 H138R (Bacillus licheniformis, UniProt Q65LG7, form not given/H138R); assay: as above; assay type: biochemical
Experimental: as §3, §4

[7] = target: GAT20-30C6 (SEQ ID NO:683) variant 20-30C6 H138S (Bacillus licheniformis, UniProt Q65LG7, form not given/H138S); assay: as above; assay type: biochemical
Experimental: as §3, §4

[8] = target: GAT20-30C6 (SEQ ID NO:683) variant 20-30C6 H41A (Bacillus licheniformis, UniProt Q65LG7, form not given/H41A); assay: as above; assay type: biochemical
Experimental: as §3, §4

[9] = target: GAT20-30C6 (SEQ ID NO:683), evolved glyphosate-N-acetyltransferase, unmodified (Bacillus licheniformis, UniProt Q65LG7); assay: as above; assay type: biochemical
Experimental: as §3, §4

[10] = tested on: O=C(O)CNCP(=O)(O)O; assay: Apparent KM for glyphosate of purified GAT, continuous spectrophotometric assay at 235 nm; assay type: biochemical, B. licheniformis; conditions: other: saturating (200 µM) Acetyl CoA, 1 µM purified GAT, 5 mM morpholine pH 7.7, 20 % ethylene glycol, 37.0 °C
Text: Genomic DNA from B. licheniformis strain B6 was purified, partially digested with Sau3A1 and fragments of 1-10 Kb were cloned into an E. coli expression vector. A clone with a 2.5 kb insert conferred the glyphosate-N-acetyltransferase (GAT) activity on the E. coli host as determined with mass spectrometry analysis. […] Subsequent cloning of this open reading frame confirmed that it encoded the GAT enzyme. The gene encoding the GAT enzyme of B6 was transformed into E. coli strain XL1 Blue. A 10% innoculum of a saturated culture was added to Luria broth, and the culture was incubated at 37° C for 1 hr. Expression of GAT was induced by the addition of IPTG at a concentration of 1 mM. The culture was incubated a further 4 hrs, following which, cells were harvested by centrifugation and the cell pellet stored at -80°C.
Lysis of the cells was effected by the addition of 1 ml of the following buffer to 0.2 g of cells: 25 mM HEPES, pH 7.3, 100 mM KCl and 10% methanol (HKM) plus 0.1 mM EDTA, 1 mM DTT, 1 mg/ml chicken egg lysozyme, and a protease inhibitor cocktail obtained from Sigma and used according to the manufacturers recommendations. After 20 minutes incubation at room temperature (e.g., 22-25°C), lysis was completed with brief sonication. The lysate was centrifuged and the supernatant was desalted by passage through Sephadex G25 equilibrated with HKM. […]

[11] = tested on: CC(=O)SCCNC(=O)CCNC(=O)[C@H](O)C(C)(C)COP(=O)(O)OP(=O)(O)OC[C@H]1O[C@@H](n2cnc3c(N)ncnc32)[C@H](O)[C@@H]1OP(=O)(O)O; assay: purified protein, by the assay type; conditions: other: 5 mM glyphosate, 0.19 µM GAT, 5 mM morpholine pH 7.7, 50% methanol

## CC(=O)SCCNC(=O)CCNC(=O)[C@H](O)C(C)(C)COP(=O)(O)OP(=O)(O)OC[C@H]1O[C@@H](n2cnc3c(N)ncnc32)[C@H](O)[C@@H]1OP(=O)(O)O [Acetyl CoA]
[1]; read-out: apparent KM for Acetyl CoA, 5 mM glyphosate, 0.19 µM GAT, 5 mM morpholine pH 7.7, 50% methanol
  Km: ~2 µM

## N[C@@H](CO)C(=O)O [Serine, L-serine]
[2]
  kcat±SE: 14.2 s⁻¹
[3]
  kcat±SE: 242 + 15.8 min^-1
[4]
  kcat±SE: 6.47 ± 0.308 s⁻¹

## O=C(O)CNCP(=O)(O)O [glyphosate, N-phosphonomethylglycine]
[1]; calculated from Vmax at a known concentration of enzyme, acetylation of glyphosate by Acetyl CoA
  kcat: 0.1 s⁻¹
[5]
  kcat: < 0.00033 s⁻¹
[6]
  kcat: 0.738 s⁻¹
[7]
  kcat: 0.0892 s⁻¹
[8]
  kcat: 3.47 s⁻¹
[9]
  kcat: 6.43 s⁻¹
[2]
  kcat±SE: 0.0892 ± 0.000717 s⁻¹
[3]
  kcat±SE: 1150 ± 27.6 min⁻¹
[4]
  kcat±SE: 24.67 ± 1.09 s⁻¹

## B. licheniformis strain B6 glyphosate-N-acetyltransferase (GAT), native, B6, SEQ ID NO:7 (Bacillus licheniformis DSM 13 = ATCC 14580)
[10]
  Km: 2900 ± 200 µM
  kcat: 0.1 s⁻¹
[11]
  Km: 2 µM
